Source: US20090326037A1 (priority 2005, published 2009)
Values joined by “and” are separate entries in the source; they are usually repeats but may differ in a detail not shown here. Equal entries are not always repeated. Structures can show the parent of a compound that is named as a salt. Where two headings read alike, the source gives them in different places.

Assays:
[1] = system: influenza A/Singapore/1/57 virus; assay: microbe, parasite or virus in culture; format: cell-based
influenza virus H3N2 = format: in vivo, mice
[2] = Influenza A virus, MDCK, read-out: percent of inhibition of viral reproduction

CCOC(=O)c1c(CSc2ccccc2)n(C)c2cc(Br)c(O)c(CN(C)C)c12 [Arbidol, 1-methyl-2-phenylthiomethyl-3-carbethoxy-4-dimethylaminomethyl-5-oxy-6-bromindol hydrochloride]
Percent of inhibition of OD 490 ([1]; A or C 5 μg/ml + Oseltamivir 41 μg, added 2 hours after infection): 100, 100% | Percent of inhibition of OD 490 ([1]; A or C 10 μg/ml + Oseltamivir 0.4 μg, added 2 hours after infection): 70% | Percent of inhibition of OD 490 ([1]; A or C 10 μg/ml + Oseltamivir 1.2 μg, added 2 hours after infection): 85% | Percent of inhibition of OD 490 ([1]; A or C 10 μg/ml + Oseltamivir 4.1 μg, added 2 hours after infection): 100% | Percent of inhibition of OD 490 ([1]; A or C 10 μg/ml + Oseltamivir 12.3 μg, added 2 hours after infection): 100% | Percent of inhibition of OD 490 ([1]; A or C 10 μg/ml + Oseltamivir 41 μg, added 2 hours after infection): 100% | Percent of inhibition of OD 490 ([1]; A or C 10 μg/ml alone (Oseltamivir 0), added 2 hours after infection): 20% | Percent of inhibition of OD 490 ([1]; A or D 1 μg/ml + Amantadin 0.3 μg/ml, added 30 min prior to infection): 30% | Percent of inhibition of OD 490 ([1]; A or D 1 μg/ml + Amantadin 1 μg/ml, added 30 min prior to infection): 30% | Percent of inhibition of OD 490 ([1]; A or D 1 μg/ml + Amantadin 5 μg/ml, added 30 min prior to infection): 52% | Percent of inhibition of OD 490 ([1]; A or D 1 μg/ml + Amantadin 10 μg/ml, added 30 min prior to infection): 59% | Percent of inhibition of OD 490 ([1]; A or D 1 μg/ml + Remantadin 0.3 μg/ml, added 30 min prior to infection): 31% | Percent of inhibition of OD 490 ([1]; A or D 1 μg/ml + Remantadin 1 μg/ml, added 30 min prior to infection): 33% | Percent of inhibition of OD 490 ([1]; A or D 1 μg/ml + Remantadin 5 μg/ml, added 30 min prior to infection): 50% | Percent of inhibition of OD 490 ([1]; A or D 1 μg/ml + Remantadin 10 μg/ml, added 30 min prior to infection): 59% | Percent of inhibition of OD 490 ([1]; A or D 1 μg/ml alone (Amantadin 0), added 30 min prior to infection): 30% | Percent of inhibition of OD 490 ([1]; A or D 1 μg/ml alone (Remantadin 0), added 30 min prior to infection): 30% | Percent of inhibition of OD 490 ([1]; A or D 5 μg/ml + Amantadin 0.3 μg/ml, added 30 min prior to infection): 60% | Percent of inhibition of OD 490 ([1]; A or D 5 μg/ml + Amantadin 1 μg/ml, added 30 min prior to infection): 68% | Percent of inhibition of OD 490 ([1]; A or D 5 μg/ml + Amantadin 5 μg/ml, added 30 min prior to infection): 74% | Percent of inhibition of OD 490 ([1]; A or D 5 μg/ml + Amantadin 10 μg/ml, added 30 min prior to infection): 81% | Percent of inhibition of OD 490 ([1]; A or D 5 μg/ml + Remantadin 0.3 μg/ml, added 30 min prior to infection): 63% | Percent of inhibition of OD 490 ([1]; A or D 5 μg/ml + Remantadin 1 μg/ml, added 30 min prior to infection): 71% | Percent of inhibition of OD 490 ([1]; A or D 5 μg/ml + Remantadin 5 μg/ml, added 30 min prior to infection): 74% | Percent of inhibition of OD 490 ([1]; A or D 5 μg/ml + Remantadin 10 μg/ml, added 30 min prior to infection): 82% | Percent of inhibition of OD 490 ([1]; A or D 5 μg/ml alone (Amantadin 0), added 30 min prior to infection): 38% | Percent of inhibition of OD 490 ([1]; A or D 5 μg/ml alone (Remantadin 0), added 30 min prior to infection): 38% | Percent of inhibition of OD 490 ([1]; A or D 10 μg/ml + Amantadin 0.3 μg/ml, added 30 min prior to infection): 77% | Percent of inhibition of OD 490 ([1]; A or D 10 μg/ml + Amantadin 1 μg/ml, added 30 min prior to infection): 81% | Percent of inhibition of OD 490 ([1]; A or D 10 μg/ml + Amantadin 5 μg/ml, added 30 min prior to infection): 82% | Percent of inhibition of OD 490 ([1]; A or D 10 μg/ml + Amantadin 10 μg/ml, added 30 min prior to infection): 85% | Percent of inhibition of OD 490 ([1]; A or D 10 μg/ml + Remantadin 0.3 μg/ml, added 30 min prior to infection): 78% | Percent of inhibition of OD 490 ([1]; A or D 10 μg/ml + Remantadin 1 μg/ml, added 30 min prior to infection): 80% | Percent of inhibition of OD 490 ([1]; A or D 10 μg/ml + Remantadin 5 μg/ml, added 30 min prior to infection): 82% | Percent of inhibition of OD 490 ([1]; A or D 10 μg/ml + Remantadin 10 μg/ml, added 30 min prior to infection): 86% | Percent of inhibition of OD 490 ([1]; A or D 10 μg/ml alone (Amantadin 0), added 30 min prior to infection): 67% | Percent of inhibition of OD 490 ([1]; A or D 10 μg/ml alone (Remantadin 0), added 30 min prior to infection): 67% | percent of inhibition of viral reproduction ([1]; Arbidol 3 μg/ml + Ribavirin 1 μg/ml): 19% | percent of inhibition of viral reproduction ([1]; Arbidol 3 μg/ml + Ribavirin 3 μg/ml): 30% | percent of inhibition of viral reproduction ([1]; Arbidol 3 μg/ml + Ribavirin 10 μg/ml): 52% | percent of inhibition of viral reproduction ([1]; Arbidol 3 μg/ml + Ribavirin 15 μg/ml): 54% | percent of inhibition of viral reproduction ([1]; Arbidol 10 μg/ml + Ribavirin 1 μg/ml): 26% | percent of inhibition of viral reproduction ([1]; Arbidol 10 μg/ml + Ribavirin 3 μg/ml): 35% | percent of inhibition of viral reproduction ([1]; Arbidol 10 μg/ml + Ribavirin 10 μg/ml): 85% | percent of inhibition of viral reproduction ([1]; Arbidol 10 μg/ml + Ribavirin 15 μg/ml): 82% | percent of inhibition of viral reproduction ([1]; Arbidol 15 μg/ml + Ribavirin 1 μg/ml): 43% | percent of inhibition of viral reproduction ([1]; Arbidol 15 μg/ml + Ribavirin 3 μg/ml): 41% | percent of inhibition of viral reproduction ([1]; Arbidol 15 μg/ml + Ribavirin 10 μg/ml): 82% | percent of inhibition of viral reproduction ([1]; Arbidol 15 μg/ml + Ribavirin 15 μg/ml): 80% | percent of inhibition of viral reproduction ([1]; Arbidol 20 μg/ml + Ribavirin 1 μg/ml): 65% | percent of inhibition of viral reproduction ([1]; Arbidol 20 μg/ml + Ribavirin 3 μg/ml): 68% | percent of inhibition of viral reproduction ([1]; Arbidol 20 μg/ml + Ribavirin 10 μg/ml): 80% | percent of inhibition of viral reproduction ([1]; Arbidol 20 μg/ml + Ribavirin 15 μg/ml): 82% | inhibition at 3 µg/mL [1, 2]: < 0% | inhibition at 10 µg/mL [1, 2]: 23% | inhibition at 15 µg/mL [1, 2]: 40% | inhibition at 20 µg/mL [1, 2]: 55% | inhibition of the virus ([1]; combination of 3 μg/ml of arbidol and 3.3 mg of zanamivir (oseltamivir), 2 hours after infection): 90% | Percent of surviving mice (influenza virus H3N2; Concentration 15): 80% | Percent of surviving mice (influenza virus H3N2; Concentration 30, hydrochloride): 80% and 60% and 70%
